Assay results as given in article PMC9502202, “Discovery of Novel Potential Aphid Repellents: Geranic Acid Esters Containing Substituted Aromatic Rings” (Molecules, 2022).

What follows are compounds tested on Acyrthosiphon pisum (A. pisum) (assay: Repellent activity test, glass two-way olfactometer). Conditions: 0.25 h, wingless A. pisum, 2.5 µL of 2000 mg/L test solution in n-hexane on filter paper, 15 min, RP = (C − T)/(C + T) × 100%, mean ± standard deviation, read-out: RP (%) repellency proportion.
Format: in vivo
Method: The behavioral response of A. pisum to 5a-5x was investigated with a glass two-way olfactometer, and the aphid-repellent activity was carried out according to our previously published method. The aphids were reared in a growth chamber (at 23 ± 1 °C, with a […]:8D photoperiod and 70% relative humidity) at China Agricultural University. The compounds were weighed, dissolved in n-hexane, and prepared into a test solution with a concentration of 2000 mg/L using n-hexane as a blank control. About 20 wingless A. pisum were placed through the release port and each arm was pumped with 0.2 L/min of activated carbon and distilled water. One arm was chosen as the “treatment” (T) arm and another was the “control” (C) arm. For the “T” arm, 2.5 μL of test solutions were applied to filter paper strips (1 cm^2 diameter), and 2.5 μL of n-hexane was applied for the “C” arm. The number of aphids in each direction was recorded for 15 min at 2 cm from the center of the horizontal arm. The olfactometer was washed with ethanol, the filter paper was replaced, and the two arms were switched and the experiment was repeated four times for each treatment. The repellent activity was evaluated using RP as the formula RP = (C - T)/(C+T) × 100%, where T and C mean the number of aphids in the treatment and control arm, respectively. The RP values of the derivatives were statistically analyzed with SPSS 24.0 (SPSS Inc., Chicago, IL, USA) using a one-way analysis of variance (ANOVA), followed by a Duncan's test with a significance set at p < 0.05.
For `CC(C)=CCC/C(C)=C/C(=O)Oc1ccc(F)cc1` [5m, 4-fluorophenyl (E)-3,7-dimethylocta-2,6-dienoate], the pest or weed control at 2000 µg/mL was 27.9 ± 2.85%.
`CC(C)=CCC/C(C)=C/C(=O)Oc1ccccc1` [5a] showed a pest or weed control at 2000 µg/mL of 38.1 ± 2.38%.
`CC(C)=CCC/C(C)=C/C(=O)Oc1ccccc1F` [5k, 2-fluorophenyl (E)-3,7-dimethylocta-2,6-dienoate] showed a pest or weed control at 2000 µg/mL of 28.8 ± 1.31%.
With `CC(C)=CCC/C(C)=C/C(=O)Oc1ccc(OC(F)(F)F)cc1` [5v, 4-(trifluoromethoxy)phenyl (E)-3,7-dimethylocta-2,6-dienoate] the pest or weed control at 2000 µg/mL was 24.9 ± 2.52%.
`CC(C)=CCC/C(C)=C/COC(=O)c1c(F)cccc1F` [CAU15, reference compound] was tested, and the pest or weed control at 2000 µg/mL was 18.3%.
Compound `CC(C)=CCC/C(C)=C/C(=O)Oc1ccc(C)cc1` [5d, 4-tolyl (E)-3,7-dimethylocta-2,6-dienoate] has a pest or weed control at 2000 µg/mL of 38.7 ± 2.75%.
`CC(C)=CCC/C(C)=C/C(=O)Oc1cccc(Cl)c1` [5i, 3-chlorophenyl (E)-3,7-dimethylocta-2,6-dienoate] showed a pest or weed control at 2000 µg/mL of 51.4 ± 1.2%.
`CC(C)=CCC/C(C)=C/C(=O)Oc1ccccc1Cl` [5h, 2-chlorophenyl (E)-3,7-dimethylocta-2,6-dienoate] showed a pest or weed control at 2000 µg/mL of 31.8 ± 1.31%.
`CC(C)=CCC/C(C)=C/C(=O)Oc1ccc(Cl)cc1` [5j, 4-chlorophenyl (E)-3,7-dimethylocta-2,6-dienoate] showed a pest or weed control at 2000 µg/mL of 38.7 ± 2.75%.
With `CC(C)=CCC/C(C)=C/C(=O)Oc1c(F)cccc1F` [5w, 2,6-difluorophenyl (E)-3,7-dimethylocta-2,6-dienoate] the pest or weed control at 2000 µg/mL was 36.7%.
For `CC(C)=CCC/C(C)=C/C(=O)Oc1cccc(OC(F)(F)F)c1` [5u, 3-(trifluoromethoxy)phenyl (E)-3,7-dimethylocta-2,6-dienoate], the pest or weed control at 2000 µg/mL was 38 ± 2.54%.
In the case of `COc1cccc(OC(=O)/C=C(\C)CCC=C(C)C)c1` [5f, 3-methoxyphenyl (E)-3,7-dimethylocta-2,6-dienoate], the pest or weed control at 2000 µg/mL is reported as 55.6%.
In the case of `CC(C)=CCC/C(C)=C/C(=O)Oc1ccccc1OC(F)(F)F` [5t, 2-(trifluoromethoxy)phenyl (E)-3,7-dimethylocta-2,6-dienoate], the pest or weed control at 2000 µg/mL is reported as 28.2 ± 1.55%.
`CC(C)=CCC/C(C)=C/C(=O)Oc1ccccc1C` [5b, 2-tolyl (E)-3,7-dimethylocta-2,6-dienoate] showed a pest or weed control at 2000 µg/mL of 35.2 ± 2.65%.
`CC(C)=CCC/C(C)=C/COC(=O)c1ccc(Br)cc1` [CAU14, reference compound] was tested, and the pest or weed control at 2000 µg/mL was 33.5%.
`CC(C)=CCC/C(C)=C/C(=O)Oc1cccc(F)c1` [5l, 3-fluorophenyl (E)-3,7-dimethylocta-2,6-dienoate] was tested, and the pest or weed control at 2000 µg/mL was 34.9 ± 3.3%.
For `CC(C)=CCC/C(C)=C/C(=O)Oc1cccc(C)c1` [5c, 3-tolyl (E)-3,7-dimethylocta-2,6-dienoate], the pest or weed control at 2000 µg/mL was 39.8 ± 1.95%.
For `CC(C)=CCC/C(C)=C/C(=O)Oc1ccc(Br)cc1` [5s, 4-bromophenyl (E)-3,7-dimethylocta-2,6-dienoate], the pest or weed control at 2000 µg/mL was 43.4%.
`CC(C)=CCC/C(C)=C/C(=O)Oc1cccc(Br)c1` [5r, 3-bromophenyl (E)-3,7-dimethylocta-2,6-dienoate] was tested, and the pest or weed control at 2000 µg/mL was 51.2 ± 1.94%.
`CC(C)=CCC/C(C)=C/C(=O)Oc1cccc([N+](=O)[O-])c1` [5o, 3-nitrophenyl (E)-3,7-dimethylocta-2,6-dienoate] gave a pest or weed control at 2000 µg/mL of 41.5 ± 1.49%.
In the case of `CC(C)=CCC/C(C)=C/C(=O)Oc1ccccc1[N+](=O)[O-]` [5n, 2-nitrophenyl (E)-3,7-dimethylocta-2,6-dienoate], the pest or weed control at 2000 µg/mL is reported as 23.4 ± 2.35%.
Compound `CC(C)=CCC/C(C)=C/C(=O)Oc1ccccc1Br` [5q, 2-bromophenyl (E)-3,7-dimethylocta-2,6-dienoate] has a pest or weed control at 2000 µg/mL of 42.7 ± 1.36%.
For `CC(C)=CCC/C(C)=C/C(=O)Oc1ccc([N+](=O)[O-])cc1` [5p, 4-nitrophenyl (E)-3,7-dimethylocta-2,6-dienoate], the pest or weed control at 2000 µg/mL was 39.8 ± 1.95%.
`COc1ccc(OC(=O)/C=C(\C)CCC=C(C)C)cc1` [5g, 4-methoxyphenyl (E)-3,7-dimethylocta-2,6-dienoate] showed a pest or weed control at 2000 µg/mL of 43.6 ± 3.09%.
`COc1ccccc1OC(=O)/C=C(\C)CCC=C(C)C` [5e, 2-methoxyphenyl (E)-3,7-dimethylocta-2,6-dienoate] showed a pest or weed control at 2000 µg/mL of 37.4 ± 2.08%.
`CC(C)=CCC/C(C)=C/C(=O)Oc1c(Br)cccc1Br` [5x, 2,6-dibromophenyl (E)-3,7-dimethylocta-2,6-dienoate] gave a pest or weed control at 2000 µg/mL of 43.9 ± 2.09%.
